# Where “and” joins values, the source holds several entries; their conditions need not be identical. Equal values may be shown once.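 Values below derive from 48-hour exposures of cells grown in 96-well plates, with endpoints linearly interpolated between the two concentrations bracketing the appropriate inhibition level. GI50 = concentration required for 50% inhibition of growth. TGI is the concentration that stops growth completely.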
# Columns and labels:
# Assay in all cases: DTP human tumour cell line panel, 48 h
# MOLT-4 leukemia = test system: MOLT-4 leukemia
# OVCAR-3 ovarian = test system: OVCAR-3 ovarian
# IGROV1 ovarian = test system: IGROV1 ovarian
# COLO 205 colon = test system: COLO 205 colon
# HOP-62 NSCLC = test system: HOP-62 NSCLC
# SR leukemia = test system: SR leukemia
# HCT-116 colon = test system: HCT-116 colon
# RPMI-8226 leukemia = test system: RPMI-8226 leukemia
# MDA-MB-435 = test system: MDA-MB-435
# DU-145 prostate = test system: DU-145 prostate
SMILES,TGI (MOLT-4 leukemia),TGI (OVCAR-3 ovarian),TGI (IGROV1 ovarian),TGI (COLO 205 colon),TGI (HOP-62 NSCLC),TGI (SR leukemia),TGI (HCT-116 colon),TGI (RPMI-8226 leukemia),TGI (MDA-MB-435),TGI (DU-145 prostate),GI50 (MOLT-4 leukemia),GI50 (OVCAR-3 ovarian),GI50 (IGROV1 ovarian),GI50 (COLO 205 colon),GI50 (HOP-62 NSCLC),GI50 (RPMI-8226 leukemia),GI50 (HCT-116 colon)
O=c1[nH]c(=O)n(C2OC(COP(=O)(O)OP(=O)(O)OC3OC(CO)C(O)C(O)C3O)C(O)C2O)cc1F (configuration not stated),> 100 µM,4.73 µM,6.26 µM,7.14 µM,4.3 µM,> 21.6 µM,1.23 µM,,,,,,,,,,
NC(CCCC(N)P(=O)(O)c1ccccc1)P(=O)(O)c1ccccc1 (configuration not stated),> 261 µM,> 261 µM,> 261 µM,> 261 µM,> 261 µM,> 261 µM,> 261 µM,> 261 µM,,,,,,,,,
O=C(c1ccccc1)N1CCN(C(=S)N(C(=O)c2ccccc2)c2ccccc2)C1=S,,15.4 µM,12.6 µM,13.2 µM,26.3 µM,> 100 µM,12.6 µM,,12.2 µM,10.6 µM,,,,,,,
Cc1ccc(N2Cc3c(ccc4ccccc34)OP2(=O)Oc2ccc(Cl)c(C)c2)cc1 (configuration not stated),> 100 µM,> 31.6 µM,> 100 µM,> 100 µM,> 100 µM,,> 100 µM,> 22.3 µM,,,,,,,,,
CC(C)OP(=O)(OC(C)C)/C(I)=N/Nc1ccc([N+](=O)[O-])cc1,> 100 µM,> 100 µM,> 100 µM,> 100 µM,> 100 µM,> 100 µM,> 100 µM,> 100 µM,,,,,,,,,
CCOC(=O)C1=CNC(C(=O)OCC)C1c1cccn1-c1ccc(Cl)cc1[N+](=O)[O-] (configuration not stated),59.5 µM,30.3 µM,29.9 µM,> 100 µM,53.6 µM,61.8 µM,35.7 µM,,58.7 µM,> 100 µM,,,,,,,
N#CCc1n[nH]c(Cc2ccccc2)n1,> 100 µM,> 100 µM,> 100 µM,> 100 µM,> 100 µM,> 100 µM,> 100 µM,,> 100 µM,> 100 µM,,,,,,,
COC(=O)CCC(=O)NC1=C(NCc2ccccc2)C(=O)c2ccccc2C1=O,> 100 µM,33.3 µM,53.7 µM,76.1 µM,,> 100 µM,> 100 µM,> 100 µM,34.9 µM,> 100 µM,,,,,,,
N[C@H](C(=O)O)[C@H]1ON=C(Cl)[C@@H]1O,68 µM,> 550 µM,> 309 µM,> 550 µM,78.2 µM,,> 550 µM,> 97.1 µM and 233 µM,,,2.48 µM,0.449 µM,7.86 µM,3.27 µM,16 µM,10.9 µM,4.4 µM
CC(C)/C(Cl)=N\OC(=O)Nc1ccccc1F,12.4 µM,34.4 µM,33.4 µM,4.2 µM,> 55.6 µM,6.54 µM,23.9 µM,92.6 µM,,30 µM,,,,,,,
[N-]=[N+]=C1N=CN=C1c1ncn[nH]1,37.1 µM,> 100 µM,> 100 µM,> 100 µM,> 100 µM,,> 100 µM,38.8 µM,> 100 µM,> 100 µM,,,,,,,
C[n+]1c(-c2ccc(/C=N/NC(=N)N/N=C/c3ccc(-c4cn5cc(Cl)ccc5[n+]4C)cc3)cc2)cn2cc(Cl)ccc21,> 100 µM,,> 100 µM,> 100 µM,> 100 µM,> 100 µM,> 100 µM,> 100 µM,> 100 µM,,,,,,,,
Cc1cccc2c(=O)c([Se]c3coc4c(C)cccc4c3=O)coc12,> 100 µM,65.6 µM,26.5 µM,,32.9 µM,79 µM,17.2 µM,> 100 µM,,,,,,,,,
BrCCCCCOc1ccc(-c2c3ccccc3c(-c3ccc(OCCCCCBr)cc3)c3ccccc23)cc1,> 100 µM,,> 100 µM,> 100 µM,> 100 µM,> 100 µM,> 100 µM,> 100 µM,> 100 µM,> 100 µM,,,,,,,
CC(NC(=O)C(C)NC(=O)C(N)CCP(C)(=O)O)C(=O)O (configuration not stated),> 100 µM,> 100 µM,> 100 µM,> 100 µM,> 100 µM,,> 100 µM,> 100 µM,,,,,,,,,
O=CN1CCN(C(=O)c2ccc(Cl)cc2Cl)C1=S,> 100 µM,> 100 µM,> 100 µM,> 100 µM,> 100 µM,,> 100 µM,> 100 µM,> 100 µM,> 100 µM,,,,,,,
N/C(=N\S(=O)(=O)c1ccc(S(=O)(=O)c2ccccc2)s1)Nc1ccc(Cl)cc1,59.6 µM,79.6 µM,31.7 µM,39.4 µM,39.3 µM,61.9 µM,32.9 µM,88.7 µM,,55.3 µM,,,,,,,
COC(=O)C1Cc2c(OC)ccc(OC)c2CC(C(=O)OC)C1=O (configuration not stated),> 100 µM,> 100 µM,> 100 µM,> 100 µM,> 100 µM,,> 100 µM,> 100 µM,> 100 µM,> 100 µM,,,,,,,
CC(=O)[C@@]1(C)CC2(CCN(C)CC2)OC1C (some centres not stated),> 100 µM,> 100 µM,> 100 µM,> 100 µM,> 100 µM,,> 100 µM,> 100 µM,> 100 µM,> 100 µM,,,,,,,
Nc1nc(SCc2ccc([N+](=O)[O-])cc2)nc2c1ncn2C1OC(COP(=O)(O)O)C(O)C1O (configuration not stated),> 100 µM,> 100 µM,> 100 µM,> 100 µM,> 100 µM,> 100 µM,> 100 µM,,,,,,,,,,
Cc1c(Cl)c2ccccc2n1S(=O)(=O)c1ccccc1,> 100 µM,> 100 µM,> 100 µM,> 100 µM,> 100 µM,> 100 µM,> 100 µM,86 µM,,,,,,,,,
CC1(C)N=C(C(N)=O)c2ncn(N)c2N1,,> 100 µM,> 100 µM,> 100 µM,> 100 µM,> 100 µM,> 100 µM,> 100 µM,> 100 µM,> 100 µM,,,,,,,
Cc1nc(C)c(C(=O)NNC(N)=S)cc1C(=O)NNC(N)=S,> 100 µM,> 100 µM,> 100 µM,> 100 µM,> 100 µM,,> 100 µM,> 100 µM,> 100 µM,> 100 µM,,,,,,,

# Source: PubChem BioAssay (NCI)
